Assay results from patent US20090061416A1, “Surfaces and methods for biosensor cellular assays” (priority 2007, published 2009).

Experiments:
[1] = test system: intracellular protein kinase C (PKC) in Jurkat cells; assay: pseudo-RACK1-induced optical signals of Jurkat cells anchored on RWG biosensor surfaces; assay type: cell-based, human
Description: The Jurkat cells, which present antigens at the cell's surface, were contacted with four different surface types: a bare waveguide substrate having a thin layer of silicon oxide (i.e., SiOx/Nb2O5, uncoated biosensor substrate) (810), a SiOx/Nb2O5 surface having anti-human CD3 (anti-CD3) (820), a SiOx/Nb2O5 surface having amino-reactive polymer EMA coating (EMA) (830), and a SiOx/Nb2O5 surface having covalently coupled anti-human CD3 (i.e., anti-CD3-EMA) (840). The anti-CD3 surface was achieved by incubating a solution containing anti-human CD3 antibody (25 μg/ml) onto the bare SiOx/Nb2O5 surface for 1 hour, followed by washing and drying. The EMA surface was prepared as described above, i.e., by sequentially coating the bare SiOx/Nb2O5 surface with aminopropylsilane and then EMA. The anti-CD3/EMA surface was prepared by incubating anti-human CD3 (25 μg/ml) solution with the EMA surface for 1 hour, followed by blocking with ethanolamine at 1% for 1 hour. The Jurkat cells were incubated on either surface for about 2 hours before assays. The kinetic response, before and after the pseudo-RACK1 addition, was recorded in real time.
Pseudo-RACK1 is a peptide (OH-lys-lys-trp-lys-met-arg-arg-asn-gln-phe-trp-ile-lys-ile-gln-arg-cys----cys-ser-val-glu-ile-trp-asp-OH) and activates intracellular protein kinase C (PKC).

[2] = test system: endogenous P2Y receptors in HEK 293 cells; assay: ATP-induced DMR signals of HEK293 cells on coated RWG biosensor surfaces; assay type: cell-based, human
Description: Three surface densities were individually prepared by slow evaporation of 0.0015%, 0.1% and 1.5 weight % gelatin solutions, as described above, covering the biosensor surfaces. The resultant respective gelatin surfaces were referred to as low-, medium-, and high-density gelatin surfaces, respectively. HEK293 cells were separately cultured onto these surfaces.
P2Y receptors belong to the family of G protein-coupled receptors. HEK 293 cells endogenously express several isoforms of P2Y receptors. […] The arrow (540) indicates when the stimulus, an ATP solution, was introduced.
FIGS. 6A and 6B show the reproducibility and robustness of a cell assay of the disclosure using HEK293 cells that were cultured on a low-density gelatin-coated 384-well Epic™ biosensor microplate. A 10 micromolar ATP solution was added to selected well of column 15 of the microplate. The ATP-induced DMR response signals within one column (16 wells) were recorded in real time in seconds and plotted in FIG. 6A. The amplitudes of the initial positive DMR (P-DMR) event (wavelength shift) of the ATP-induced DMR signals were plotted as a function of well numbers 1-16 in FIG. 6B. The assay Coefficient of Variability (CV), or reproducibility, was about 4%, indicating a relatively high reproducibility, with an average signal of 193 picometers (pm), and a standard deviation of 8 pm.
To covalently couple RGD-like peptides to the biosensor surface, the biosensor was coated sequentially with a thin layer of silicon oxide (about 3 nm), aminopropylsilane (about 1-3 nm), poly(ethylene-alt-maleic anhydride) (EMA) (forming polymeric clusters), and finally a RGD-like peptide (Gly-Arg-Gly-Asp-Ser, GRGDS). Specifically, a thin layer of silicon oxide was deposited onto the Corning Epic™ niobium oxide waveguide surface up to 3 nm. Afterwards, the biosensor was coated with an aminopropylsilane solution of about 0.1 vol/vol %, washed and dried, followed by the interaction with an EMA solution of about 0.01 wt/vol %, and washed and dried. Finally, a GRGDS solution was applied to the EMA biosensor surface. […]

[3] = test system: CHO-KCNQ cells; assay: ATP-induced DMR signals of CHO-KCNQ cells on RWG biosensor; assay type: cell-based, Chinese hamster
Procedure: Referring to the Figures, FIGS. 1A and 1B show cross-sectional configurations of two examples of RWG biosensors used for living cell sensing. In FIG. 1A a cell (10) is directly cultured onto the unmodified or bare surface of the waveguide thin film (15) of a RWG biosensor (18) having a waveguide grating atop a substrate. In FIG. 1B a cell (10) is cultured onto the surface of an inorganic thin film (19) which has been previously deposited onto the surface of the waveguide thin film (15). Here a thin film of silicon oxide of about 1 nm to about 5 nm is directly deposited onto the surface of a waveguide thin film of niobium oxide by vapor deposition method. Each biosensor associated cell has an approximate penetration depth (20). […] CHO-KCNQ is an engineered CHO cell having over-expressed a potassium ion channel KCNQ2. FIGS. 2A and 2B compare the ATP-induced DMR signals, response units versus time, of CHO-KCNQ cells: The FIG. 2A cells were cultured on an unmodified or bare niobia surface of the waveguide thin film of a Corning® Epic™ RWG biosensor; and FIG. 2B cells were cultured on a biosensor having, for example, a discontinuous thin film modified waveguide surface of silicon dioxide particles. […]

Compound | optical signal after stimulation ([1]; 9 μM, Jurkat cells on anti-CD3, EMA and anti-CD3-EMA surfaces (FIG. 8A)) | optical signal after stimulation ([1]; Jurkat cells on bare SiOx/Nb2O5 surface (FIG. 8A)) | amplitude of initial positive DMR (P-DMR) event, average signal ([2]; 10 micromolar ATP, HEK293 cells on low-density gelatin-coated 384-well Epic microplate, 16 wells (FIG. 6)) | ATP-induced DMR response intensity ([2]; 20 micromolar ATP, HEK293 cells on GRGDS-derivatized EMA surfaces made with 10, 30, 100, 250 micromolar GRGDS (FIG. 7)) | detection of ATP-induced DMR signals ([2]; HEK293 cells on low-, medium- and high-density gelatin-coated surfaces (FIG. 5)) | ATP-induced DMR signal, average signal ([3]; CHO-KCNQ cells cultured on discontinuous thin film of silicon dioxide particles on waveguide (FIG. 2B)) [pm] | ATP-induced DMR signal, average signal ([3]; CHO-KCNQ cells cultured on unmodified or bare niobia waveguide surface (FIG. 2A)) [pm]
OH-lys-lys-trp-lys-met-arg-arg-asn-gln-phe-trp-ile-lys-ile-gln-arg-cys----cys-ser-val-glu-ile-trp-asp-OH [pseudo-RACK1] | significant optical signals | did not led to any detectable optical signal | – | – | – | – | –
Nc1ncnc2c1ncn2[C@@H]1O[C@H](COP(=O)(O)OP(=O)(O)OP(=O)(O)O)[C@@H](O)[C@H]1O [ATP, adenosine triphosphate] | – | – | 193 picometers (pm) | increasing response intensity | Only the low-density gelatin-coated surface enabled the detection | 144 | 115
